This note sets out measurements from patent US6936604B2, “Bridged bicyclic amino acid-derived [1,4]benzodiazepine vasopressin receptor antagonists” (Ortho-McNeil Pharmaceutical, Inc., priority 2001, dated 2005).

For one assay, the target named is T1, human V1a receptor (Homo sapiens, UniProt P37288).
T1 construct: expressed in transfected cells; host or cells: HEK-293
The assay is described as follows: In vitro recombinant vasopressin receptor binding assay (3H-arginine vasopressin displacement), V1a. The conditions noted are these: cloned human V1a receptor membranes, HEK-293 cells. On the procedure:
(§1) In Vitro Recombinant Vasopressin Receptor Binding Assay
(§2) Compounds were assessed for their ability to displace ^3H-arginine vasopressin from the human V1a or V2 receptor in HEK-293 cells. Assay buffer is 50 mM Tris-Cl, 5 mM MgCl2, 0.1% BSA (pH 7.5) containing 5 μg/mL of aprotinin, leupeptin, pepstatin, 50 μg/mL bacitracin, and 1 mM Pefabloc. ^3H-vasopressin is ^3H-arginine-8-vasopressin (68.5 Ci/mmol, final concentration in assay is 0.65-0.75 nM). Into wells of 96-well round bottom polypropylene plates were added buffer, test compound, membrane (containing cloned human V1a or V2 receptor) and ^3H-vasopressin. The reaction plates were allowed to sit at room temperature for one hour. The samples were filtered through Unifilter GF/C plates (presoaked in 0.3 polyethyleneimine). The plates were washed 5 times with cold physiological saline containing 0.05% Tween 20. After drying, the bottom of the filter plates were sealed and 0.025 mL of Microscint-20 was added to each filter. The top of the plate was sealed, and the plate was counted.

The next assay concerns the target T2, human V2 receptor (Homo sapiens, UniProt P30518).
T2 construct: expressed in transfected cells; host or cells: HEK-293
Description: In vitro recombinant vasopressin receptor binding assay (3H-arginine vasopressin displacement), V2. The conditions noted are these: cloned human V2 receptor membranes, HEK-293 cells. Here is the method: as §1, §2

Assay [1] concerns conscious hydrated male rats. The assay is described as follows: Diuresis study, acute diuretic effect after oral administration. Format: in vivo, Sprague Dawley rats. The conditions noted are these: 4 hours urine collection, mean±SE. On the procedure: The acute diuretic effect of compounds of the invention after oral administration was tested according to the procedure described herein.
Mature male Sprague Dawley rats, 200-300 gms, from Charles River Labs Inc. were housed one rat per cage, in a rodent room. Room temperature was maintained at […] and humidity at 30-70%. Room lighting was on a 12 hrs light/12 hrs dark cycle. Rats were fed laboratory rodent diet, #5001 (supplied from Purina Mills, St.Louis, Mo. via W. F. Fisher, Bound Brook, N.J.).
Four different concentrations of test compound were prepared. For each dose, compound was prepared as a uniform suspension in 0.5% methylcellulose vehicle using a water bath sonicator to ensure uniform suspension and dosed in a volume of 2 ml/kg.
All animals were fasted for 18 hours and weights were taken and recorded for each animal. Animals were dosed orally with drug via gavage needle. After oral dosing, animals were placed into metabolism racks for 4 hours. The urine was collected and the volume measured. Aliquots of 0.5 mL were stored at 4° C. for later analysis.
Each value represents the mean±SE. *Data has a p value of <0.05 versus vehicle using Dunnett's Multiple Comparison Test. **Data has a p value of <0.01 versus vehicle. ^aNumber of animals in parentheses represent the number of animals providing osmolality values (if different than the number of animals providing urine volume values).

Marks after values point to notes of the source that are not given here.

T1 sequence (P37288 whole entry): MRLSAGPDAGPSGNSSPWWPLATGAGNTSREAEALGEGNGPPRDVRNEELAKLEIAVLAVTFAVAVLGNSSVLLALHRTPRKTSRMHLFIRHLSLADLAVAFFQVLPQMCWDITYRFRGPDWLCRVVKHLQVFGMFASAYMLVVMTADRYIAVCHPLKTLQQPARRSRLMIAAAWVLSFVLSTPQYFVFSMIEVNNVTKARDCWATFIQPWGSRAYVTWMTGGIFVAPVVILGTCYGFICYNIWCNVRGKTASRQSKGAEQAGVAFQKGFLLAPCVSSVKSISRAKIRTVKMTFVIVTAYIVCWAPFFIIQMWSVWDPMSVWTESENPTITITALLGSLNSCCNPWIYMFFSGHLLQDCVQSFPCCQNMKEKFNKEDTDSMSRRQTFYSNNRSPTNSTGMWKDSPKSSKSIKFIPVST

In the case of “N-[4-[[(6aS)-2-chloro-6,6a,7,8,9,10-hexahydro-7,10-methanopyrido[2,1-c][1,4]benzodiazepin-5(12H)-yl]carbonyl]-3-chlorophenyl]-2-(trifluoromethyl)-benzamide [Compound 12]”, the IC50 on human V1a receptor amounted to 10 nM; on human V2 receptor, 15 nM.
For `O=C(Nc1ccc(C(=O)N2C[C@@H]3C4CCC(CC4)N3Cc3ccccc32)c(Cl)c1)c1ccccc1-c1ccccc1` [Compound 13, N-[4-[[(6aS)-6,6a,7,8,9,10-hexahydro-7,10-ethanopyrido[2,1-c][1,4]benzodiazepin-5(12H)-yl]carbonyl]-3-chlorophenyl]-[1,1′-biphenyl]-2-carboxamide], the IC50 on human V2 receptor is 24 nM.
On the same count and under the same terms, the same measure for `Cc1ccc(F)cc1C(=O)Nc1ccc(C(=O)N2C[C@@H]3C4CCC(CC4)N3Cc3ccccc32)c(Cl)c1` [Compound 14, N-[4-[[(6aS)-6,6a,7,8,9,10-hexahydro-7,10-ethanopyrido[2,1-c][1,4]benzodiazepin-5(12H)-yl]carbonyl]-3-chlorophenyl]-5-fluoro-2-methyl-benzamide]: 19 nM.
Same read-out and setting: the same measure for `O=C(Nc1ccc(C(=O)N2C[C@@H]3C4CCC(C4)N3Cc3ccccc32)c(Cl)c1)c1ccccc1-c1ccccc1` (mixture of isomers) [Compound 3, N-[4-[[(6aS)-6,6a,7,8,9,10-hexahydro-7,10-methanopyrido[2,1-c][1,4]benzodiazepin-5(12H)-yl]carbonyl]-3-chlorophenyl]-[1,1′-biphenyl]-2-carboxamide]: 15 nM; for `O=C(Nc1ccc(C(=O)N2CC3C4CCC(CC4)N3Cc3ccccc32)c(Cl)c1)c1ccccc1-c1ccccc1` (racemic) [Compound 2, N-[4-[(6,6a,7,8,9,10-hexahydro-7,10-ethanopyrido[2,1-c][1,4]benzodiazepin-5(12H)-yl)carbonyl]-3-chlorophenyl]-[1,1′-biphenyl]-2-carboxamide]: 4 nM.
Turning to `O=C(Nc1ccc(C(=O)N2C[C@H]3C4CCC(C4)N3Cc3ccccc32)c(Cl)c1)c1ccccc1-c1ccccc1` (stereo partly drawn) [Compound 5, N-[4-[[(6aR)-6,6a,7,8,9,10-hexahydro-7,10-methanopyrido[2,1-c][1,4]benzodiazepin-5(12H)-yl]carbonyl]-3-chlorophenyl]-[1,1′-biphenyl]-2-carboxamide], the IC50 at human V2 receptor came out at 15 nM. Further, the “Urine Osmolality” value in assay [1] (0.3 mg/Kg oral) is on record as 408 ± 37* mOsm/kg; in assay [1] (1.0 mg/Kg oral), 303 ± 29* mOsm/kg; in assay [1] (3.0 mg/Kg oral), 238 ± 18* mOsm/kg; in assay [1] (10 mg/Kg oral), 172 ± 9* mOsm/kg. Also, the “Urine Volume” value in assay [1] (0.3 mg/Kg oral) is recorded as 1.4 ± 0.1* mL; in assay [1] (1.0 mg/Kg oral), 3.4 ± 0.4* mL; in assay [1] (3.0 mg/Kg oral) it was 9.4 ± 1.1* mL; in assay [1] (10 mg/Kg oral), 19.5 ± 1.4* mL.
For the molecule `Cc1ccc(-c2ccccc2C(=O)Nc2ccc(C(=O)N3C[C@@H]4C5CCC(CC5)N4Cc4cc(Cl)ccc43)cc2)cc1` [Compound 16, N-[4-[[(6aS)-2-chloro-6,6a,7,8,9,10-hexahydro-7,10-ethanopyrido[2,1-c][1,4]benzodiazepin-5(12H)-yl]carbonyl]phenyl]-4′-methyl-[1,1′-biphenyl]-2-carboxamide], the IC50 on human V1a receptor amounted to 59 nM; on human V2 receptor, 72 nM.
With `O=C(Nc1ccc(C(=O)N2C[C@@H]3C4CCC(C4)N3Cc3ccccc32)c(Cl)c1)c1ccccc1-c1ccccc1` (stereo partly drawn) [Compound 4, N-[4-[[(6aS)-6,6a,7,8,9,10-hexahydro-7,10-methanopyrido[2,1-c][1,4]benzodiazepin-5(12H)-yl]carbonyl]-3-chlorophenyl]-[1,1′-biphenyl]-2-carboxamide], the IC50 on human V1a receptor is 24 nM; at human V2 receptor, 4 nM. Further, the “Urine Osmolality” value in assay [1] (0.3 mg/Kg oral) is on record as 444 ± 79* mOsm/kg; in assay [1] (1.0 mg/Kg oral), 299 ± 34* mOsm/kg; in assay [1] (3.0 mg/Kg oral), 180 ± 9* mOsm/kg; in assay [1] (10 mg/Kg oral), 138 ± 11* mOsm/kg. Further, the “Urine Volume” value is recorded as 2.5 ± 0.3 mL in assay [1] (0.3 mg/Kg oral), 6.0 ± 0.7* mL in assay [1] (1.0 mg/Kg oral), 15.1 ± 1.4* mL in assay [1] (3.0 mg/Kg oral) and 29.9 ± 2.0* mL in assay [1] (10 mg/Kg oral).
In the case of `O=C(Nc1ccc(C(=O)N2C[C@@H]3C4CCC(C4)N3Cc3cc(Cl)ccc32)cc1)c1ccccc1F` (stereo partly drawn) [Compound 10, N-[4-[[(6aS)-2-chloro-6,6a,7,8,9,10-hexahydro-7,10-methanopyrido[2,1-c][1,4]benzodiazepin-5(12H)-yl]carbonyl]phenyl]-2-fluoro-benzamide], the IC50 on human V1a receptor came out at 5 nM; at human V2 receptor, 10 nM.
As for `O=C(Nc1ccc(C(=O)N2C[C@@H]3C4CCC(C4)N3Cc3cc(Cl)ccc32)cc1)c1ccccc1-c1ccc(F)cc1` (stereo partly drawn) [Compound 9, N-[4-[[(6aS)-2-chloro-6,6a,7,8,9,10-hexahydro-7,10-methanopyrido[2,1-c][1,4]benzodiazepin-5(12H)-yl]carbonyl]phenyl]-4′-fluoro-[1,1′-biphenyl]-2-carboxamide], the IC50 is 68 nM on human V1a receptor and 26 nM at human V2 receptor.
Taken in the same sequence, the figures for `O=C(Nc1ccc(C(=O)N2C[C@@H]3C4CCC(CC4)N3Cc3cc(Cl)ccc32)cc1)c1ccccc1Cl` [Compound 15, N-[4-[[(6aS)-2-chloro-6,6a,7,8,9,10-hexahydro-7,10-ethanopyrido[2,1-c][1,4]benzodiazepin-5(12H)-yl]carbonyl]phenyl]-2-chloro-benzamide] were 13 nM and 35 nM.
In the case of `Cc1ccc(-c2ccccc2C(=O)Nc2ccc(C(=O)N3C[C@@H]4C5CCC(C5)N4Cc4ccccc43)c(Cl)c2)cc1` (stereo partly drawn) [Compound 7, N-[4-[[(6aS)-6,6a,7,8,9,10-hexahydro-7,10-methanopyrido[2,1-c][1,4]benzodiazepin-5(12H)-yl]carbonyl]-3-chlorophenyl]-4′-methyl-[1,1′-biphenyl]-2-carboxamide], the results for the IC50 on human V1a receptor and at human V2 receptor were 35 nM and 3 nM, respectively.
For the molecule `Cc1ccc(-c2ccccc2C(=O)Nc2ccc(C(=O)N3C[C@@H]4C5CCC(C5)N4Cc4cc(Cl)ccc43)cc2)cc1` (stereo partly drawn) [Compound 6, N-[4-[[(6aS)-2-chloro-6,6a,7,8,9,10-hexahydro-7,10-methanopyrido[2,1-c][1,4]benzodiazepin-5(12H)-yl]carbonyl]phenyl]-4′-methyl-[1,1′-biphenyl]-2-carboxamide], the IC50 on human V1a receptor was 24 nM; at human V2 receptor, 5 nM. Further, the “Urine Osmolality” value in assay [1] (1.0 mg/Kg oral) is 387 ± 15 mOsm/kg; in assay [1] (3.0 mg/Kg oral), 226 ± 9** mOsm/kg; in assay [1] (10 mg/Kg oral), 159 ± 9** mOsm/kg. Besides, the “Urine Volume” value is 2.9 ± 0.2 mL in assay [1] (1.0 mg/Kg oral), 5.8 ± 0.5** mL in assay [1] (3.0 mg/Kg oral) and 17.8 ± 1.3** mL in assay [1] (10 mg/Kg oral).
With `O=C(Nc1ccc(C(=O)N2C[C@@H]3C4CCC(C4)N3Cc3cc(Cl)ccc32)cc1)c1ccccc1Cl` (stereo partly drawn) [Compound 11, N-[4-[[(6aS)-2-chloro-6,6a,7,8,9,10-hexahydro-7,10-methanopyrido[2,1-c][1,4]benzodiazepin-5(12H)-yl]carbonyl]phenyl]-2-chloro-benzamide], the IC50 stood at 4 nM on human V1a receptor and 7 nM on human V2 receptor.

One may read the IC50 as the concentration at which inhibition is half-maximal.
